Where two headings read alike, the source gives them in different places. Starred links: 1 amine or outer side, 2 acyl side, 3 side chain; linkers in the order of their positions; H or OH if unused. Positions of bridges follow the written chain, without caps; N, C: chain ends. Non-standard residues stand in square brackets, D forms with d. Residues, ends and D or L forms follow the SMILES beside them. *: point of attachment. Bip(4'-NHCO-C6H4-4-CH2COOH) = N[C@@H](Cc1ccc(-c2ccc(NC(=O)c3ccc(CC(=O)O)cc3)cc2)cc1)C(=O)O; dArg(ω-(2S)-2,3-diOHpropyl) = N=C(NCCC[C@@H](N)C(=O)O)NC[C@H](O)CO; Bip(4'-NH) = O=C([C@H](Cc1ccc(-c2ccc(N[*:3])cc2)cc1)N[*:1])[*:2]; Indazole3carbonyl(1-CH2COOH) = O=C(O)Cn1nc(C(=O)*)c2ccccc21; Bip(4'-COOH) = N[C@@H](Cc1ccc(-c2ccc(C(=O)O)cc2)cc1)C(=O)O; X53 = CC(C)(C)n1nnc(CNC(=N)NCCC[C@@H](N[*:1])C(=O)[*:2])n1; Indole3carbonyl(1-CH2COOH) = O=C(O)Cn1cc(C(=O)*)c2ccccc21; dArg(ω-Bn) = N=C(NCCC[C@@H](N)C(=O)O)NCc1ccccc1; Ala(morpholin-4-yl) = N[C@@H](CN1CCOCC1)C(=O)O; Benzoyl(3-OCH2COOH) = O=C(O)COc1cccc(C(=O)*)c1; Phe(3-CONH2) = NC(=O)c1cccc(C[C@H](N)C(=O)O)c1; Bip = N[C@@H](Cc1ccc(-c2ccccc2)cc1)C(=O)O; Hyp = O=C(O)[C@@H]1C[C@@H](O)CN1; Tle = CC(C)(C)[C@H](N)C(=O)O; Sar = CNCC(=O)O
Biological target: TNFα (Homo sapiens, UniProt P01375)
Assay: TNF-Induced HEK-Blue Assay
Format: cell-based
[1] = HEK-Blue-CD40L cells, NF-kB-driven secreted alkaline phosphatase reporter, TNFα 0.5 ng/ml, 18 h, read-out: TNF induced HEK-Blue assay IC50 value

TNFα, sequence (P01375 77-233 limits assumed): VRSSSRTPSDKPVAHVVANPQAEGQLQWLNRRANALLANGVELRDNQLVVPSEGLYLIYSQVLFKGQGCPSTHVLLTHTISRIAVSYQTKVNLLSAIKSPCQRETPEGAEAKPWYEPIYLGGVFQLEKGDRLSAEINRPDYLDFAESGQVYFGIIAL

IC50 [1] [nM] | Compound | IC50 [nM]
– | CC(C)C[C@@H]1NC(=O)[C@H](CCCNC(=N)N)NC(=O)[C@H](C(C)C)NC(=O)[C@@H]2CCCN2C(=O)[C@H](C(C)C)NC(=O)[C@@H](CCCNC(=N)NC[C@H](O)CO)NC(=O)[C@H](CC(=O)O)NC(=O)[C@@H]2CCCN2C(=O)CN(C)C(=O)[C@H](Cc2ccc(-c3ccc(NC(=O)c4nn(CC(=O)O)c5ccccc45)cc3)cc2)NC(=O)[C@H](Cc2ccc(-c3ccccc3)cc2)NC(=O)[C@H](CN2CCOCC2)NC(=O)CSC[C@@H](C(=O)NCC(N)=O)NC1=O [Example 475] ({CH2CO}-[Ala(morpholin-4-yl)][Bip][Bip(4'-NH)](Indazole3carbonyl(1-CH2COOH))[Sar]PD[dArg(ω-(2S)-2,3-diOHpropyl)]VPVRLCG-NH2; thioether N-13) | < 50
– | CC(C)C[C@@H]1NC(=O)[C@H](CCCNC(=N)N)NC(=O)[C@H](C(C)C)NC(=O)[C@@H]2CCCN2C(=O)[C@H](C(C)C)NC(=O)[C@@H](CCCNC(=N)NCc2nnn(C(C)(C)C)n2)NC(=O)[C@H](CC(=O)O)NC(=O)[C@@H]2CCCN2C(=O)CN(C)C(=O)[C@H](Cc2ccc(-c3ccc(NC(=O)c4nn(CC(=O)O)c5ccccc45)cc3)cc2)NC(=O)[C@H](Cc2ccc(-c3ccccc3)cc2)NC(=O)[C@H](CN2CCOCC2)NC(=O)CSC[C@@H](C(=O)NCC(N)=O)NC1=O [Example 510] ({CH2CO}-[Ala(morpholin-4-yl)][Bip][Bip(4'-NH)](Indazole3carbonyl(1-CH2COOH))[Sar]PD[X53]VPVRLCG-NH2; thioether N-13) | < 50
< 50 | CC(C)C[C@@H]1NC(=O)[C@H](Cc2cccc(C(N)=O)c2)NC(=O)[C@H](C(C)C)NC(=O)[C@@H]2CCCN2C(=O)[C@H](C(C)C)NC(=O)[C@@H](CCCNC(=N)N)NC(=O)[C@H](CC(=O)O)NC(=O)[C@H](Cc2cnc[nH]2)NC(=O)CN(C)C(=O)[C@H](Cc2ccc(-c3ccc(NC(=O)c4cccc(OCC(=O)O)c4)cc3)cc2)NC(=O)[C@H](Cc2ccc(-c3ccc(C(=O)O)cc3)cc2)NC(=O)[C@H](C(C)(C)C)NC(=O)CSC[C@@H](C(=O)NCC(N)=O)NC1=O [Example 590] ({CH2CO}-[Tle][Bip(4'-COOH)][Bip(4'-NH)](Benzoyl(3-OCH2COOH))[Sar]HD[dR]VPV[Phe(3-CONH2)]LCG-NH2; thioether N-13) | –
– | CC(C)C[C@@H]1NC(=O)[C@H](Cc2ccc(O)cc2)NC(=O)[C@H](C(C)C)NC(=O)[C@@H]2CCCN2C(=O)[C@H](C(C)C)NC(=O)[C@@H](CCCNC(=N)NCc2ccccc2)NC(=O)[C@H](CC(=O)O)NC(=O)[C@@H]2CCCN2C(=O)CN(C)C(=O)[C@H](Cc2ccc(-c3ccc(NC(=O)c4cn(CC(=O)O)c5ccccc45)cc3)cc2)NC(=O)[C@H](Cc2ccc(-c3ccccc3)cc2)NC(=O)[C@H](CN2CCOCC2)NC(=O)CSC[C@@H](C(=O)NCC(N)=O)NC1=O [Example 531] ({CH2CO}-[Ala(morpholin-4-yl)][Bip][Bip(4'-NH)](Indole3carbonyl(1-CH2COOH))[Sar]PD[dArg(ω-Bn)]VPVYLCG-NH2; thioether N-13) | < 50
200 to 2000 | CC[C@H](C)[C@@H]1NC(=O)[C@H](C(C)C)NC(=O)[C@@H]2CCCN2C(=O)[C@H](C(C)C)NC(=O)[C@H](CCCNC(=N)N)NC(=O)[C@H](CC(=O)O)NC(=O)[C@H](Cc2ccc(O)cc2)NC(=O)CN(C)C(=O)[C@H](Cc2ccc(-c3ccccc3)cc2)NC(=O)[C@H](Cc2ccc(-c3ccccc3)cc2)NC(=O)[C@H](Cc2ccccc2)NC(=O)CSC[C@@H](C(=O)NCC(N)=O)NC(=O)[C@H](CC(C)C)NC1=O [Example 19] ({CH2CO}-F[Bip][Bip][Sar]YDRVPVILCG-NH2; thioether N-13) | –
200 to 2000 | CC(C)C[C@@H]1NC(=O)[C@H](Cc2ccc(O)cc2)NC(=O)[C@H](C(C)C)NC(=O)[C@@H]2C[C@@H](O)CN2C(=O)[C@H](C(C)C)NC(=O)[C@H](CCCNC(=N)N)NC(=O)[C@H](CC(=O)O)NC(=O)[C@H](Cc2ccc(O)cc2)NC(=O)CN(C)C(=O)[C@H](Cc2ccc(-c3ccccc3)cc2)NC(=O)[C@H](Cc2ccc(-c3ccccc3)cc2)NC(=O)[C@H](CN2CCOCC2)NC(=O)CSC[C@@H](C(=O)NCC(N)=O)NC1=O [Example 73] ({CH2CO}-[Ala(morpholin-4-yl)][Bip][Bip][Sar]YDRV[Hyp]VYLCG-NH2; thioether N-13) | –
< 50 | CC[C@H](C)[C@@H]1NC(=O)[C@@H](CCCNC(=N)N)NC(=O)[C@H](CC(=O)O)NC(=O)[C@H](Cc2cnc[nH]2)NC(=O)CN(C)C(=O)[C@H](Cc2ccc(-c3ccc(NC(=O)c4ccc(CC(=O)O)cc4)cc3)cc2)NC(=O)[C@H](Cc2ccc(-c3ccccc3)cc2)NC(=O)[C@H](C(C)(C)C)NC(=O)CSC[C@@H](C(=O)NCC(N)=O)NC(=O)[C@H](CC(C)C)NC(=O)[C@H](Cc2cnc[nH]2)NC(=O)[C@H](C(C)C)NC(=O)[C@@H]2CCCN2C1=O [Example 485] ({CH2CO}-[Tle][Bip][Bip(4'-NHCO-C6H4-4-CH2COOH)][Sar]HD[dR]IPVHLCG-NH2; thioether N-13) | –

From patent publication US20250145665A1, “MACROCYCLIC PEPTIDES USEFUL AS MODULATORS OF TNF ALPHA” (Bristol-Myers Squibb Company, priority 2023, published 2025)
